Source: ChEMBL document CHEMBL3352486, “Design, synthesis and biological evaluation of metronidazole-thiazole derivatives as antibacterial inhibitors” (Bioorg Med Chem Lett, 2014)
In brackets after ≈: the same amount, converted by molar mass.

Assays:
Pseudomonas aeruginosa = assay: Antibacterial activity against Pseudomonas aeruginosa after 24 hrs by MTT method; format: functional, organism-based
[1] = molecular target: T1, Beta-ketoacyl-[acyl-carrier-protein] synthase III (Escherichia coli K-12, UniProt P0A6R0); assay: Inhibition of Escherichia coli FabH
T1 sequence (P0A6R0 whole entry): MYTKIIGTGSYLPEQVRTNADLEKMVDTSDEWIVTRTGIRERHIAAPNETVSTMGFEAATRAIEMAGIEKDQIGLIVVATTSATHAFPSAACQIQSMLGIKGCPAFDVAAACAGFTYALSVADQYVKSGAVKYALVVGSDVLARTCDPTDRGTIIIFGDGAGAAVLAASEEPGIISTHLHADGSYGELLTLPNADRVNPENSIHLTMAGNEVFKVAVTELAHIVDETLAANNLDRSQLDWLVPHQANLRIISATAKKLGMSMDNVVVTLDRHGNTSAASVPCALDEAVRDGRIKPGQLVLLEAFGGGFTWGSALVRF

Bacillus thuringiensis = assay: Antibacterial activity against Bacillus thuringiensis after 24 hrs by MTT method; format: functional, organism-based
Escherichia coli = assay: Antibacterial activity against Escherichia coli after 24 hrs by MTT method; format: functional, organism-based
Bacillus subtilis = assay: Antibacterial activity against Bacillus subtilis after 24 hrs by MTT method; format: functional, organism-based
[2] = Cytotoxicity against human macrophages assessed as drug level causing microscopically detectable alteration in normal cell morphology after 24 hrs by MTT assay; format: cell-based, Macrophage

SMILES: Cc1ncc([N+](=O)[O-])n1CCOc1ccc(/C=N/Nc2nc(-c3ccccc3Br)cs2)cc1
- IC50 (Pseudomonas aeruginosa): 20.6 µg/mL (≈ 39.1 µM)
- IC50 [1]: 4.9 µM
- IC50 (Bacillus thuringiensis): 88.4 µg/mL (≈ 168 µM)
- IC50 (Escherichia coli): 26.9 µg/mL (≈ 51 µM)
- IC50 (Bacillus subtilis): 27.6 µg/mL (≈ 52.3 µM)
- CC50 at 24 h [2]: 322 µg/mL

SMILES: Cc1ncc([N+](=O)[O-])n1CCOc1ccc(/C=N\NC(N)=S)cc1
- IC50 (Pseudomonas aeruginosa): 98.3 µg/mL (≈ 282 µM)
- IC50 (Bacillus thuringiensis): 88.4 µg/mL (≈ 254 µM)
- IC50 (Escherichia coli): 111 µg/mL (≈ 318 µM)
- IC50 (Bacillus subtilis): 103 µg/mL (≈ 296 µM)

SMILES: Cc1ncc([N+](=O)[O-])n1CCOc1cccc(/C=N\NC(N)=S)c1
- IC50 (Pseudomonas aeruginosa): 85.6 µg/mL (≈ 246 µM)
- IC50 (Bacillus thuringiensis): 78.6 µg/mL (≈ 226 µM)
- IC50 (Escherichia coli): 89.7 µg/mL (≈ 257 µM)
- IC50 (Bacillus subtilis): 96.3 µg/mL (≈ 276 µM)

SMILES: Cc1ncc([N+](=O)[O-])n1CCOc1ccc(/C=N/Nc2nc(-c3ccccc3)cs2)cc1
- IC50 (Pseudomonas aeruginosa): 38.2 µg/mL (≈ 85.2 µM)
- IC50 [1]: 5.2 µM
- IC50 (Bacillus thuringiensis): 15.5 µg/mL (≈ 34.6 µM)
- IC50 (Escherichia coli): 38.3 µg/mL (≈ 85.4 µM)
- IC50 (Bacillus subtilis): 13.1 µg/mL (≈ 29.2 µM)
- CC50 at 24 h [2]: 467 µg/mL

SMILES: COc1ccc(-c2csc(N/N=C/c3ccc(OCCn4c([N+](=O)[O-])cnc4C)cc3)n2)cc1
- IC50 (Pseudomonas aeruginosa): 6.3 µg/mL (≈ 13.2 µM)
- IC50 [1]: 6.1 µM
- IC50 (Bacillus thuringiensis): 26.2 µg/mL (≈ 54.8 µM)
- IC50 (Escherichia coli): 50.8 µg/mL (≈ 106 µM)
- IC50 (Bacillus subtilis): 19.4 µg/mL (≈ 40.5 µM)
- CC50 at 24 h [2]: 268 µg/mL

SMILES: Cc1ncc([N+](=O)[O-])n1CCOc1ccc(/C=N/Nc2nc(-c3ccc(Br)cc3)cs2)cc1
- IC50 (Pseudomonas aeruginosa): 85.3 µg/mL (≈ 162 µM)
- IC50 [1]: 6.2 µM
- IC50 (Bacillus thuringiensis): 66.9 µg/mL (≈ 127 µM)
- IC50 (Escherichia coli): 43.3 µg/mL (≈ 82.1 µM)
- IC50 (Bacillus subtilis): 98.8 µg/mL (≈ 187 µM)

SMILES: Cc1ncc([N+](=O)[O-])n1CCOc1ccc(/C=N/Nc2nc(-c3ccc(C(F)(F)F)cc3)cs2)cc1
- IC50 (Pseudomonas aeruginosa): 98 µg/mL (≈ 190 µM)
- IC50 [1]: 7.2 µM
- IC50 (Bacillus thuringiensis): 78.8 µg/mL (≈ 153 µM)
- IC50 (Escherichia coli): 41.2 µg/mL (≈ 79.8 µM)
- IC50 (Bacillus subtilis): 32.8 µg/mL (≈ 63.5 µM)
- CC50 at 24 h [2]: 218 µg/mL

SMILES: Cc1ncc([N+](=O)[O-])n1CCOc1cccc(/C=N/Nc2nc(-c3ccccc3)cs2)c1
- IC50 (Pseudomonas aeruginosa): 21.6 µg/mL (≈ 48.2 µM)
- IC50 [1]: 8.6 µM
- IC50 (Bacillus thuringiensis): 53.7 µg/mL (≈ 120 µM)
- IC50 (Escherichia coli): 48.6 µg/mL (≈ 108 µM)
- IC50 (Bacillus subtilis): 118 µg/mL (≈ 264 µM)

SMILES: COc1ccc(-c2csc(N/N=C/c3cccc(OCCn4c([N+](=O)[O-])cnc4C)c3)n2)cc1
- IC50 (Pseudomonas aeruginosa): 10.8 µg/mL (≈ 22.6 µM)
- IC50 [1]: 9.2 µM
- IC50 (Bacillus thuringiensis): 5.9 µg/mL (≈ 12.3 µM)
- IC50 (Escherichia coli): 28.8 µg/mL (≈ 60.2 µM)
- IC50 (Bacillus subtilis): 1.9 µg/mL (≈ 3.97 µM)
- CC50 at 24 h [2]: 238 µg/mL

SMILES: Cc1ncc([N+](=O)[O-])n1CCOc1cccc(/C=N/Nc2nc(-c3ccc(Br)cc3)cs2)c1
- IC50 (Pseudomonas aeruginosa): 83.9 µg/mL (≈ 159 µM)
- IC50 [1]: 20.8 µM
- IC50 (Bacillus thuringiensis): 98 µg/mL (≈ 186 µM)
- IC50 (Escherichia coli): 98.3 µg/mL (≈ 186 µM)
- IC50 (Bacillus subtilis): 117 µg/mL (≈ 223 µM)

SMILES: Cc1ncc([N+](=O)[O-])n1CCOc1cccc(/C=N/Nc2nc(-c3ccc(C(F)(F)F)cc3)cs2)c1
- IC50 (Pseudomonas aeruginosa): 3.6 µg/mL (≈ 6.97 µM)
- IC50 [1]: 13.5 µM
- IC50 (Bacillus thuringiensis): 73 µg/mL (≈ 141 µM)
- IC50 (Escherichia coli): 48.8 µg/mL (≈ 94.5 µM)
- IC50 (Bacillus subtilis): 3.7 µg/mL (≈ 7.16 µM)
- CC50 at 24 h [2]: 517 µg/mL

SMILES: Cc1ncc([N+](=O)[O-])n1CCOc1cccc(/C=N/Nc2nc(-c3ccccc3Br)cs2)c1
- IC50 (Pseudomonas aeruginosa): 67.7 µg/mL (≈ 128 µM)
- IC50 [1]: 36.2 µM
- IC50 (Bacillus thuringiensis): 58.7 µg/mL (≈ 111 µM)
- IC50 (Escherichia coli): 75.2 µg/mL (≈ 143 µM)
- IC50 (Bacillus subtilis): 15.5 µg/mL (≈ 29.4 µM)

SMILES: NC[C@H]1O[C@H](O[C@H]2[C@H](O)[C@@H](O[C@H]3O[C@H](CO)[C@@H](O)[C@H](N)[C@H]3O)[C@H](N)C[C@@H]2N)[C@H](O)[C@@H](O)[C@@H]1O [KANAMYCIN]
- IC50 [1]: 6.8 µM
- IC50 (Escherichia coli): 46.3 µg/mL (≈ 95.6 µM)
